In patent publication US10645928B2, “Pesticidally active polycyclic derivatives with sulfur containing substituents” (Syngenta Participations AG, priority 2014, dated 2020):

Experiments:
Type in all cases: in vivo
[1] = system: Spodoptera littoralis (Egyptian Cotton Leaf Worm); test: Example B19: Spodoptera littoralis, compound in agar absorbed by lettuce roots, anti-feedant effect; settings: 144 h, test rate of 12.5 ppm, uptake by lettuce roots, Spodoptera eggs, 6 days after infestation, read-out: anti-feeding
Summary of the method: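 Compound from DMSO stock mixed into agar; lettuce seedlings took it up via roots over 7 days, then cut leaves were infested with Spodoptera eggs. Anti-feedant effect scored 6 days after infestation relative to untreated samples.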

[2] = system: Frankliniella occidentalis (Western Flower Thrips); test: Example B7: Frankliniella occidentalis, sprayed sunflower leaf discs, mortality; settings: foliar, 168 h, application rate of 200 ppm, population of mixed ages, 7 days after infestation
Experimental: Sunflower leaf discs were placed on agar in 24-well microtiter plates and sprayed with aqueous test solutions prepared from 10,000 DMSO stock solutions. After drying the leaf discs were infested with a Frankliniella population of mixed ages. The samples were assessed for mortality 7 days after infestation.

[3] = system: Tetranychus urticae (Two-Spotted Spider Mite); test: Example B21: Tetranychus urticae, sprayed bean leaf discs, mortality; settings: foliar, 192 h, application rate of 200 ppm, mixed population (mobile stages), 8 days after infestation
Experimental: Bean leaf discs on agar in 24-well microtiter plates were sprayed with aqueous test solutions prepared from 10,000 ppm DMSO stock solutions. After drying the leaf discs were infested with a mite population of mixed ages. The samples were assessed for mortality on mixed population (mobile stages) 8 days after infestation.

[4] = system: Plutella xylostella (Diamond Back Moth); test: Example B13: Plutella xylostella, treated artificial diet, mortality and growth inhibition; settings: 120 h, application rate of 200 ppm, L2 larvae, 5 days after infestation, read-out: effect in at least one of the two categories (mortality or growth inhibition)
Experimental: 24-well microtiter plates with artificial diet were treated with aqueous test solutions prepared from 10,000 ppm DMSO stock solutions by pipetting. After drying, the plates were infested with L2 larvae (10 to 15 per well). The samples were assessed for mortality and growth inhibition in comparison to untreated samples 5 days after infestation.

[5] = system: Spodoptera littoralis (Egyptian Cotton Leaf Worm); test: Example B16: Spodoptera littoralis, sprayed cotton leaf discs, mortality; settings: foliar, 72 h, application rate of 200 ppm, L1 larvae, 3 days after infestation
Experimental: Cotton leaf discs were placed onto agar in 24-well microtiter plates and sprayed with aqueous test solutions prepared from 10,000 ppm DMSO stock solutions. After drying the leaf discs were infested with five L1 larvae. The samples were assessed for mortality 3 days after infestation.

[6] = system: Bemisia tabaci (Cotton White Fly); test: Example B1: Bemisia tabaci, sprayed cotton leaf discs, mortality; settings: foliar, 144 h, application rate of 200 ppm, adult white flies, 6 days after incubation
Experimental: Cotton leaf discs were placed on agar in 24-well microtiter plates and sprayed with aqueous test solutions prepared from 10,000 ppm DMSO stock solutions. After drying the leaf discs were infested with adult white flies. The samples were checked for mortality 6 days after incubation.

CCS(=O)(=O)c1cc(C(C#N)CCBr)cnc1-c1cn2cnc(C(F)(F)F)cc2n1 (stereo not drawn) [Compound P13, 4-bromo-2-[5-ethylsulfonyl-6-[7-(trifluoromethyl)imidazo[1,2-c]pyrimidin-2-yl]-3-pyridyl]butanenitrile]
≥ 80%: pest or weed control at 12.5 ppm [1] | mortality at 200 ppm [2] | mortality at 200 ppm [3] | percent effect (mortality or growth inhibition) at 200 ppm [4] | mortality at 200 ppm [5] | mortality at 200 ppm [6]
